Results: patent US4414204A, “Antibiotic preparations having increased effectiveness, processes for their manufacture and method for increasing the antibiotic action of antibiotics” (Ciba-Geigy Corporation, priority 1979, dated 1983)

Tests used:
Assay type in all cases: in vivo
Klebsiella pneumoniae = assay: Mice infected i.p. with Klebsiella pneumoniae, treated s.c. with cefroxadin alone or with muramylpeptide; survival, ED50; settings: 2×10^4 cfu Klebsiella pneumoniae i.p., cefroxadin twice s.c. (0 and 3 h after infection) with 10 mg/kg N-acetylmuramyl-L-alanyl-D-isoglutaminyl-L-alanyl-2-(1',2'-dipalmitoyl-sn-glycero-3'-hydroxyphosphoryloxy)-ethylamide, survivors counted 4 and 10 days after infection
Description: (§1) For this purpose, animals are infected with a lethal or sub-lethal dose of a pathogenic micro-organism and then the specified novel preparation of the individual doses of muramylpeptide and antibiotic are administered. The action is determined as ED50, that is to say, the dose at which 50% of the animals survive.
(§2) Laboratory white mice are infected i.p. with 2×10^4 cfu (colony forming units) of Klebsiella pneumoniae, 0.1×10^4 cfu of Pasteurella multocida or 40×10^4 cfu of Salmonella typhimurium in salt solution so that 90 to 100% of the untreated control animals die within 48 hours. Immediately after infection and 3 hours after infection, groups of 10 mice are treated with cefroxadin, both alone (without muramylpeptide) and in combination with 10 mg/kg of N-acetylmuramyl-L-alanyl-D-isoglutaminyl-L-alanyl-2-(1',2'-dipalmitoyl-sn- glycero-3'-hydroxyphosphoryloxy)-ethylamide, these being administered twice subcutaneously in the form of aqueous solutions or suspensions. A count of the surviving animals was made 4 and 10 days after infection.

Salmonella typhimurium = assay: Mice infected i.p. with Salmonella typhimurium, treated s.c. with cefroxadin alone or with muramylpeptide; survival, ED50; settings: 40×10^4 cfu Salmonella typhimurium i.p., cefroxadin twice s.c. (0 and 3 h after infection) with 10 mg/kg N-acetylmuramyl-L-alanyl-D-isoglutaminyl-L-alanyl-2-(1',2'-dipalmitoyl-sn-glycero-3'-hydroxyphosphoryloxy)-ethylamide, survivors counted 4 and 10 days after infection
Description: as §1, §2

Pasteurella multocida = assay: Mice infected i.p. with Pasteurella multocida, treated s.c. with cefroxadin alone or with muramylpeptide; survival, ED50; settings: 0.1×10^4 cfu Pasteurella multocida i.p., cefroxadin twice s.c. (0 and 3 h after infection) with 10 mg/kg N-acetylmuramyl-L-alanyl-D-isoglutaminyl-L-alanyl-2-(1',2'-dipalmitoyl-sn-glycero-3'-hydroxyphosphoryloxy)-ethylamide, survivors counted 4 and 10 days after infection
Description: as §1, §2

Measured: ED50 values for the antibiotic in combination with the muramylpeptide versus alone

COC1=C(C(=O)O)N2C(=O)[C@@H](NC(=O)[C@H](N)C3=CCC=CC3)[C@H]2SC1 [cefroxadin, 7β-[D-2-amino-2-(1,4-cyclohexadienyl)-acetamido]-3-methoxy-3-cephem-4-carboxylic acid]
lower by a multiple: all assays above
